In EPA's ToxRefDB 2:

Key:
rat [1] = conditions: Sub-acute repeat dose toxicity, sprague dawley, Oral, Gavage/Intubation, dose end: 28 day, group: systemic
dog = conditions: Chronic toxicity; beagle; Oral; Capsule; dose end: 1 year; group: systemic; systemic / in life observation / body weight / body weight + systemic / in life observation / clinical signs / vomitting + systemic / in …
rat [2] = conditions: Prenatal developmental toxicity study, sprague dawley, Oral, Gavage/Intubation, dose end: 17 GD
rat [3] = conditions: Fertility (Segment I), sprague dawley, Oral, Gavage/Intubation, dose end: 49 day
rat [4] = conditions: Fertility (Segment I), sprague dawley, Oral, Gavage/Intubation, dose end: 7 GD
rat [5] = conditions: Prenatal developmental toxicity study, sprague dawley, Oral, Gavage/Intubation, dose end: 17 GD, group: maternal
rat [6] = conditions: Fertility (Segment I), sprague dawley, Oral, Gavage/Intubation, dose end: 7 GD; remark: listed apart in the source
rabbit = conditions: Prenatal developmental toxicity study, new zealand white, Oral, Gavage/Intubation, dose end: 19 GD
[7] = systemic / clinical chemistry / alanine aminotransferase (alt/sgpt) / alanine aminotransferase (alt/sgpt) + systemic / clinical chemistry / …
[8] = systemic / clinical chemistry / alanine aminotransferase (alt/sgpt) / alanine aminotransferase (alt/sgpt) + systemic / in life observation…
[9] = group: developmental, systemic / in life observation / body weight / fetal weight
[10] = group: maternal, reproductive / reproductive performance / implantations / implantations + reproductive / reproductive performance / postimplantation loss / …
[11] = group: maternal, systemic / in life observation / body weight / body weight + systemic / in life observation / clinical signs / piloerection + systemic / in …
[12] = group: maternal, reproductive / reproductive performance / fertility / fertility + reproductive / reproductive performance / pregnancy index / pregnancy …
[13] = group: parental, systemic / in life observation / body weight / body weight + systemic / in life observation / body weight / body weight gain + systemic / in…
[14] = group: maternal, reproductive / offspring survival early / litter viability other / total litter loss + reproductive / reproductive performance / estrous …
[15] = group: maternal, reproductive / reproductive performance / fertility / fertility + reproductive / reproductive performance / precoital interval / precoital …
[16] = group: parental, systemic / in life observation / clinical signs / alopecia + systemic / in life observation / body weight / body weight gain + systemic / in…
[17] = reproductive / reproductive performance / implantations / implantations + reproductive / reproductive performance / postimplantation loss / …
[18] = systemic / in life observation / body weight / body weight + systemic / in life observation / body weight / body weight gain + systemic / in…
[19] = group: maternal, reproductive / reproductive performance / estrous cycle / abnormal + reproductive / reproductive performance / estrous cycle / corpora lutea…
[20] = group: maternal, reproductive / reproductive performance / implantations / implantations
[21] = group: parental, systemic / in life observation / body weight / body weight gain + systemic / in life observation / clinical signs / abnormal respiratory …
[22] = group: maternal, systemic / in life observation / body weight / body weight gain + systemic / in life observation / clinical signs / defecation + systemic / …

## CCc1c(C(=O)NN2CCCCC2)nn(-c2ccc(Cl)cc2Cl)c1-c1ccc(Br)cc1 [Surinabant]
Rat [1]; [7]
  LOAEL: > 300 mg/kg/day
  NOAEL: ≥ 300 mg/kg/day
Rat [1]; [8]
  LEL: 30 mg/kg/day
  NEL: < 30 mg/kg/day
dog
  LEL: 1 mg/kg/day
  LOAEL: 1 mg/kg/day
  NEL: < 1 mg/kg/day
  NOAEL: < 1 mg/kg/day
Rat [2]; [9]
  LEL: 100 mg/kg/day
  LOAEL: 100 mg/kg/day
  NEL: 10 mg/kg/day
  NOAEL: 10 mg/kg/day
Rat [2]; [10]
  LOAEL: 100 mg/kg/day
  NOAEL: 10 mg/kg/day
Rat [2]; [11]
  LEL: 10 mg/kg/day
  NEL: < 10 mg/kg/day
Rat [3]; [12]
  LEL: 300 mg/kg/day
  LOAEL: 300 mg/kg/day
  NEL: 100 mg/kg/day
  NOAEL: 100 mg/kg/day
Rat [3]; [13]
  LEL: 100 mg/kg/day
  NEL: < 100 mg/kg/day
Rat [3]; group: parental, systemic / pathology gross / sperm measure / sperm count
  LOAEL: 300 mg/kg/day
Rat [3]; group: parental, systemic / pathology gross / sperm measure / sperm count + systemic / in life observation / body weight / body weight + systemic / in life …
  NOAEL: 100 mg/kg/day
Rat [4]; [14]
  LOAEL: > 1000 mg/kg/day
  NOAEL: ≥ 1000 mg/kg/day
Rat [4]; [15]
  LEL: 10 mg/kg/day
  NEL: < 10 mg/kg/day
Rat [4]; [16]
  LEL: 10 mg/kg/day
  LOAEL: > 1000 mg/kg/day
  NEL: < 10 mg/kg/day
  NOAEL: ≥ 1000 mg/kg/day
Rat [5]; [17]
  LOAEL: > 100 mg/kg/day
  NOAEL: ≥ 100 mg/kg/day
Rat [5]; [18]
  LEL: 10 mg/kg/day
  NEL: < 10 mg/kg/day
Rat [6]; [19]
  LOAEL: 50 mg/kg/day
  NOAEL: 10 mg/kg/day
Rat [6]; [20]
  LEL: 10 mg/kg/day
  NEL: < 10 mg/kg/day
Rat [6]; [21]
  LEL: 10 mg/kg/day
  LOAEL: > 100 mg/kg/day
  NEL: < 10 mg/kg/day
  NOAEL: ≥ 100 mg/kg/day
rabbit; [9]
  LEL: 1 mg/kg/day
  LOAEL: > 20 mg/kg/day
  NEL: < 1 mg/kg/day
  NOAEL: ≥ 20 mg/kg/day
rabbit; [22]
  LEL: 1 mg/kg/day
  LOAEL: > 20 mg/kg/day
  NEL: < 1 mg/kg/day
  NOAEL: ≥ 20 mg/kg/day
